# Test results reported in PubChem BioAssay (NCI).
#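 Cells were grown in 96-well plates and exposed to each compound for 48 hours at five concentrations; endpoints were interpolated linearly between bracketing concentrations, or set to the highest concentration if not reached. At the TGI there is no net growth.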
# Legend:
# Experiment in all cases: NCI tumour cell line growth inhibition, 48 h
# [1] = system: MCF7 breast
# [2] = system: SK-MEL-2 melanoma
# [3] = system: MALME-3M melanoma
# [4] = system: 786-0 renal
# [5] = system: SNB-75 CNS
# [6] = system: MDA-N
# [7] = system: M14 melanoma
# [8] = system: NCI-H522 lung
# [9] = system: ACHN renal
# [10] = system: SF-295 CNS
# [11] = system: SF-539 CNS
# [12] = system: NCI-H460 lung
# [13] = system: HS 578T breast
# [14] = system: HCT-15 colon
# [15] = system: SNB-19 CNS
# [16] = system: COLO 205 colon
# [17] = system: HOP-62 NSCLC
# [18] = system: HOP-92 NSCLC
# [19] = system: NCI/ADR-RES ovarian
# [20] = system: HT29 colon
# [21] = system: SN12C renal
# [22] = system: LOX IMVI melanoma
# [23] = system: A498 renal
# [24] = system: SR leukemia
# [25] = system: SF-268 CNS
# [26] = system: K-562 leukemia
# [27] = system: MDA-MB-435
# [28] = system: KM12 colon
# [29] = system: UO-31 renal
# [30] = system: HCC-2998 colon
# [31] = system: OVCAR-4 ovarian
# [32] = system: EKVX NSCLC
# [33] = system: SK-OV-3 ovarian
# [34] = system: SK-MEL-5 melanoma
# [35] = system: OVCAR-3 ovarian
# [36] = system: U251 CNS
# [37] = system: IGROV1 ovarian
# [38] = system: RPMI-8226 leukemia
# [39] = system: DU-145 prostate
# [40] = system: HCT-116 colon
# [41] = system: CAKI-1 renal
# [42] = system: SW-620 colon
# [43] = system: RXF 393 renal
# [44] = system: OVCAR-8 ovarian
# [45] = system: MOLT-4 leukemia
# [46] = system: MDA-MB-231 breast
# [47] = system: SK-MEL-28 melanoma
# [48] = system: A549 NSCLC
# [49] = system: T-47D breast
# [50] = system: UACC-62 melanoma
# [51] = system: NCI-H23 lung
# [52] = system: NCI-H226 lung
# [53] = system: UACC-257 melanoma
# [54] = system: BT-549 breast
# [55] = system: PC-3 prostate
# [56] = system: TK-10 renal
# [57] = system: OVCAR-5 ovarian
# [58] = system: CCRF-CEM leukemia
# [59] = system: HL-60(TB) leukemia
compound,measurement,setting,value
C[C@]1(O)CC(=O)c2c(c(-c3ccc4cc5c(c(O)c4c3O)C(=O)C[C@@](C)(O)C5)c3cccc(O)c3c2O)C1,TGI,[1],> 100 µM
same,TGI,[2],6.22 µM
same,TGI,[3],27.1 µM
same,TGI,[4],17.1 µM
same,TGI,[5],19.3 µM
same,TGI,[6],19.4 µM
same,TGI,[7],29.8 µM
same,TGI,[8],13.5 µM
same,TGI,[9],18 µM
same,TGI,[10],18.6 µM
same,TGI,[11],6.45 µM
same,TGI,[12],11.3 µM
same,TGI,[13],88 µM
same,TGI,[14],11.4 µM
same,TGI,[15],23.2 µM
same,TGI,[16],3.3 µM
same,TGI,[17],10.9 µM
same,TGI,[18],8.72 µM
same,TGI,[19],25.4 µM
same,TGI,[20],20 µM
same,TGI,[21],15.8 µM
same,TGI,[22],26.6 µM
same,TGI,[23],16.4 µM
same,TGI,[24],> 100 µM
same,TGI,[25],17.9 µM
same,TGI,[26],> 100 µM
same,TGI,[27],41 µM
same,TGI,[28],11.7 µM
same,TGI,[29],14.8 µM
same,TGI,[30],16.4 µM
same,TGI,[31],21.1 µM
same,TGI,[32],24.7 µM
same,TGI,[33],24.4 µM
same,TGI,[34],14 µM
same,TGI,[35],17.2 µM
same,TGI,[36],12.3 µM
same,TGI,[37],22.8 µM
same,TGI,[38],47.8 µM
same,TGI,[39],29 µM
same,TGI,[40],79.7 µM
same,TGI,[41],18.2 µM
same,TGI,[42],47 µM
same,TGI,[43],17.8 µM
same,TGI,[44],18.5 µM
same,TGI,[45],> 100 µM
same,TGI,[46],19.3 µM
same,TGI,[47],23.2 µM
same,TGI,[48],23.8 µM
same,TGI,[49],14.4 µM
same,TGI,[50],27 µM
same,TGI,[51],12.9 µM
same,TGI,[52],21.9 µM
same,TGI,[53],30.8 µM
same,TGI,[54],18.6 µM
same,TGI,[55],13.2 µM
same,TGI,[56],28 µM
same,TGI,[57],25.3 µM
same,TGI,[58],> 100 µM
Cc1cc(C)c2c(=O)n(CN3CCN(c4ccccc4)CC3)sc2n1,TGI,[1],> 100 µM
same,TGI,[2],33.9 µM
same,TGI,[3],> 100 µM
same,TGI,[4],31.4 µM
same,TGI,[5],42.7 µM
same,TGI,[6],60.4 µM
same,TGI,[7],76.6 µM
same,TGI,[8],32.5 µM
same,TGI,[9],35.2 µM
same,TGI,[10],> 100 µM
same,TGI,[11],37.5 µM
same,TGI,[12],> 100 µM
same,TGI,[13],> 100 µM
same,TGI,[14],50.7 µM
same,TGI,[15],> 100 µM
same,TGI,[16],41.3 µM
same,TGI,[17],> 100 µM
same,TGI,[18],> 100 µM
same,TGI,[19],52.7 µM
same,TGI,[20],34.6 µM
same,TGI,[21],87 µM
same,TGI,[59],41.5 µM
same,TGI,[22],44.1 µM
same,TGI,[23],> 100 µM
same,TGI,[25],> 100 µM
same,TGI,[26],> 100 µM
same,TGI,[27],> 100 µM
same,TGI,[28],> 100 µM
same,TGI,[29],40.7 µM
same,TGI,[30],> 100 µM
same,TGI,[31],> 100 µM
same,TGI,[32],70.1 µM
same,TGI,[33],> 100 µM
same,TGI,[34],> 100 µM
same,TGI,[35],99.6 µM
same,TGI,[36],56.2 µM
same,TGI,[37],> 100 µM
same,TGI,[39],63.3 µM
same,TGI,[40],35.1 µM
same,TGI,[41],39.4 µM
same,TGI,[42],> 100 µM
same,TGI,[43],25.7 µM
same,TGI,[44],> 100 µM
same,TGI,[45],58.7 µM
same,TGI,[46],39.5 µM
same,TGI,[47],> 100 µM
same,TGI,[48],> 100 µM
same,TGI,[49],33.8 µM
same,TGI,[50],> 100 µM
same,TGI,[51],85.2 µM
same,TGI,[52],> 100 µM
same,TGI,[53],> 100 µM
same,TGI,[54],> 100 µM
same,TGI,[55],40.5 µM
same,TGI,[56],> 100 µM
same,TGI,[57],49.2 µM
same,TGI,[58],> 100 µM
CC(C)c1ccc2c(c1)[C@@]1(C)CC[C@H](C)C(C)(C)C1CC2 (some centres undefined),TGI,[1],32.1 µM
same,TGI,[2],63.3 µM
same,TGI,[3],37 µM
same,TGI,[4],33.4 µM
same,TGI,[5],31.6 µM
same,TGI,[6],56.3 µM
same,TGI,[7],34.8 µM
same,TGI,[8],75.3 µM
same,TGI,[9],32.6 µM
same,TGI,[10],38.3 µM
same,TGI,[11],39.6 µM
same,TGI,[12],36.9 µM
same,TGI,[13],47.4 µM
same,TGI,[14],34 µM
same,TGI,[15],35.3 µM
same,TGI,[16],42.1 µM
same,TGI,[17],35.2 µM
same,TGI,[18],36.3 µM
same,TGI,[19],36.6 µM
same,TGI,[20],31.3 µM
same,TGI,[21],31.8 µM
same,TGI,[59],63.6 µM
same,TGI,[22],32 µM
same,TGI,[23],34.9 µM
same,TGI,[24],67.5 µM
same,TGI,[25],36 µM
same,TGI,[26],> 100 µM
same,TGI,[27],31.3 µM
same,TGI,[28],38.4 µM
same,TGI,[29],> 100 µM
same,TGI,[30],41.3 µM
same,TGI,[31],30.3 µM
same,TGI,[32],35.2 µM
same,TGI,[33],33.9 µM
same,TGI,[34],41.4 µM
same,TGI,[35],63 µM
same,TGI,[37],> 100 µM
same,TGI,[38],41.1 µM
same,TGI,[39],59.4 µM
same,TGI,[40],34.9 µM
same,TGI,[41],50.6 µM
same,TGI,[42],> 100 µM
same,TGI,[43],33.2 µM
same,TGI,[44],33.1 µM
same,TGI,[45],94.7 µM
same,TGI,[46],34 µM
same,TGI,[47],31.6 µM
same,TGI,[48],32.1 µM
same,TGI,[49],66.4 µM
same,TGI,[50],29.9 µM
same,TGI,[51],35.6 µM
same,TGI,[52],32.3 µM
same,TGI,[53],36.7 µM
same,TGI,[54],35 µM
same,TGI,[56],33.1 µM
same,TGI,[57],52.6 µM
same,TGI,[58],47.7 µM
Nc1ccc(S(=O)(=O)Nc2nc3ccccc3nc2Nc2ccc(S(N)(=O)=O)cc2)cc1,TGI,[1],> 100 µM
same,TGI,[2],45.6 µM
same,TGI,[3],97.4 µM
same,TGI,[4],> 100 µM
same,TGI,[5],69.6 µM
same,TGI,[6],> 100 µM
same,TGI,[7],> 100 µM
same,TGI,[8],96.6 µM
same,TGI,[9],> 100 µM
same,TGI,[10],72.1 µM
same,TGI,[11],> 100 µM
same,TGI,[12],> 100 µM
same,TGI,[13],> 100 µM
same,TGI,[14],> 100 µM
same,TGI,[15],> 100 µM
same,TGI,[16],> 100 µM
same,TGI,[17],> 100 µM
same,TGI,[18],> 100 µM
same,TGI,[19],> 100 µM
same,TGI,[20],> 100 µM
same,TGI,[21],> 100 µM
same,TGI,[59],63.2 µM
same,TGI,[22],38.3 µM
same,TGI,[24],> 100 µM
same,TGI,[25],60.7 µM
same,TGI,[26],> 100 µM
same,TGI,[27],> 100 µM
same,TGI,[28],> 100 µM
same,TGI,[29],56.2 µM
same,TGI,[31],49.7 µM
same,TGI,[32],> 100 µM
same,TGI,[33],> 100 µM
same,TGI,[34],> 100 µM
same,TGI,[35],> 100 µM
same,TGI,[36],> 100 µM
same,TGI,[37],> 100 µM
same,TGI,[38],> 100 µM
same,TGI,[39],> 100 µM
same,TGI,[40],> 100 µM
same,TGI,[41],> 100 µM
same,TGI,[42],> 100 µM
same,TGI,[43],62 µM
same,TGI,[44],> 100 µM
same,TGI,[45],93.3 µM
same,TGI,[46],> 100 µM
same,TGI,[47],> 100 µM
same,TGI,[48],> 100 µM
same,TGI,[49],> 100 µM
same,TGI,[50],> 100 µM
same,TGI,[51],48 µM
same,TGI,[52],> 100 µM
same,TGI,[53],> 100 µM
same,TGI,[54],62.1 µM
same,TGI,[55],> 100 µM
same,TGI,[56],> 100 µM
same,TGI,[57],> 100 µM
same,TGI,[58],> 100 µM
